According to patent US8420696B2, “Use of low-dose ladostigil for neuroprotection” (priority 2005, dated 2013):

What was measured:
MAO-A = target: T1, MAO-A (Rattus norvegicus, UniProt P21396); experiment: Example 2: MAO-A activity in homogenates of striatum; assay type: in vivo, rats; settings: chronic 1 mg/kg; for MAO-A (%) inhibition: Striatum
T1 construct: from tissue; host or cells: striatum homogenate of dosed Sprague-Dawley rats
T1 sequence (P21396 1-526): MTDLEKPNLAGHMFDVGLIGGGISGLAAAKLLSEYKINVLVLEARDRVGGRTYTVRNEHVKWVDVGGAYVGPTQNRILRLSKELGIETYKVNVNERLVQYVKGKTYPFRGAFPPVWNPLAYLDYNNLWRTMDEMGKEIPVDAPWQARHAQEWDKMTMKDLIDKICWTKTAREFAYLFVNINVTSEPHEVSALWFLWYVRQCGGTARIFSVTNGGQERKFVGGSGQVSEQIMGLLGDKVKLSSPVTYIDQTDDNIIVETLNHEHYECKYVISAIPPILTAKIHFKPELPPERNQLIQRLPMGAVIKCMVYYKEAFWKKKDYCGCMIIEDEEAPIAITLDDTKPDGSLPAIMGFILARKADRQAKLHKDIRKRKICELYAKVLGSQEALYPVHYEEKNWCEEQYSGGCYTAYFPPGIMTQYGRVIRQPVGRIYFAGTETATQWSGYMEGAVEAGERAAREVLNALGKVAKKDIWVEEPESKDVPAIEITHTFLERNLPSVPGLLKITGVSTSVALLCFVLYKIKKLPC
Procedure: (§1) The effect of chronic ladostigil treatment on ChE activity in the cortex and hippocampus of rats was determined one week after icv STZ in 12 rats (3 treated with water and 9 with ladostigil). The effect of acute treatment with ladostigil 1 or 17 mg/kg was determined 2 hrs after drug administration. […] The brain was rapidly removed, washed with saline on ice and the cortex, hippocampus and striatum dissected out, quickly weighed and stored at −70° C. until assay. Total ChE activity in the cortex and hippocampus was measured as described in Wang et al., Gender differences in the effect of rivastigmine on brain cholinesterase activity and cognitive function in rats, Neuropharmacology (2000) 39:497-506, using the spectrophotometric method of Ellman et al., A new and rapid colorimetric determination of acetylcholinesterase activity, Biochem. Pharmacol. (1961) 7:88-95 with acetylthiocholine (Sigma Ltd) as a substrate using homogenate of 100 mg tissue in 1 ml phosphate buffer. To determine only butyrylcholinesterase (BuChE) activity the amounts of tissue/ml of buffer were increased 3-fold and butyrylthiocholine (Sigma Ltd) was used as a substrate. MAO A and B activity was measured in homogenates of striatum as described in Weinstock et al., Limited potentiation of blood pressure response to oral tyramine by brain-selective monoamine oxidase A-B inhibitor, TV-3326 in conscious rabbits, Neuropharmacology (2002) 43:999-1005.

[1] = system: rats injected icv with STZ (episodic memory); experiment: Object recognition test after icv STZ; assay type: in vivo, Sprague-Dawley rats; settings: for Effect on the deficit in episodic memory: four weeks after icv STZ
Procedure: Male Sprague-Dawley rats (63) weighing 320-340 g, aged 4 months, were anesthetized by an intraperitoneal injection of Equithesin 0.3 ml/kg. STZ (0.5 mg) dissolved in 2 μl artificial cerebrospinal fluid (CSF) was injected into each lateral ventricle of 45 rats. The stereotaxic co-ordinates for icv injection were: 0.9 mm posterior, 1.8 mm lateral and 3.8 mm ventral from the bregma level. Control rats (18) received a bilateral injection of 2 μl artificial CSF. […] The remaining 20 rats received 1 ml/kg water. The rats were housed two per cage with free access to food and water until the behavioral, enzymatic and cytochemical measurements were completed.
Episodic memory in the object recognition test was still intact 2 but not 4 weeks after a single icv STZ injection (Table 3). Therefore, rats that were treated with ladostigil or water were tested for object and place recognition 4 weeks after icv injection of STZ or CSF. The object recognition test measured non-spatial working memory with characteristics of episodic memory that is primarily affected in senile dementia (Bartolini et al., Aniracetam restores object recognition impaired by age, scopolamine, and nucleus basalis lesions, Pharmacol. Biochem. Behav. (1996) 53:277-83). The test depended on intact cortical and hippocampal function (Winters et al., Double dissociation between the effects of peri-postrhinal cortex and hippocampal lesions on tests of object recognition and spatial memory: heterogeneity of function within the temporal lobe, J. Neuroscience (2004) 24:5901-8), while place recognition, another manifestation of spatial memory, was dependent on intact hippocampal function. The experiments were carried out as previously described in Mumby et al., Hippocampal damage and exploratory preferences in rats: memory for objects, places, and contexts, Learning Memory (2002) 9:49-57, in a box made of dark Perspex (60×60 cm and 50 cm high), covered with a dark Perspex lid. In order to increase their interest in the objects, rats were familiarized with the test arena by placing them in it for 5 min on each of 3 successive days and the object recognition test performed on the 4th day. Two identical objects were placed in the arena and the time taken by the rats to explore each object during a period of 3 min was recorded. One hour later, the objects were replaced by one that was identical to the two used in the first test and a second one that was different from them and the time taken to explore each of them was again recorded. The following day, the place recognition test was carried out with two identical objects as described above but different from those used previously. One hour later, the one of the two objects was moved to another position in the arena as described in Mumby et al., supra.
Group means of 3 measures in the object and place recognition tests, duration of exploration in first and second phases and discrimination index were submitted to one way ANOVA. Mean daily escape latencies for trial 1 and trial 2 in the MWM in each group were analyzed by repeated measures ANOVA for DAY and GROUP followed by Duncan's post hoc test where appropriate. Histological data were analyzed by univariate ANOVA followed by Duncan's post hoc test. All values represent means±SEM.

[2] = target: T2, butyrylcholinesterase (BuChE) (Rattus norvegicus, UniProt Q9JKC1); experiment: Example 2: BuChE activity in cortex and hippocampus after ladostigil treatment; assay type: in vivo, rats; settings: chronic 1 mg/kg
T2 construct: from tissue; host or cells: cortex and hippocampus homogenates of dosed Sprague-Dawley rats
T2 sequence (Q9JKC1 24-597): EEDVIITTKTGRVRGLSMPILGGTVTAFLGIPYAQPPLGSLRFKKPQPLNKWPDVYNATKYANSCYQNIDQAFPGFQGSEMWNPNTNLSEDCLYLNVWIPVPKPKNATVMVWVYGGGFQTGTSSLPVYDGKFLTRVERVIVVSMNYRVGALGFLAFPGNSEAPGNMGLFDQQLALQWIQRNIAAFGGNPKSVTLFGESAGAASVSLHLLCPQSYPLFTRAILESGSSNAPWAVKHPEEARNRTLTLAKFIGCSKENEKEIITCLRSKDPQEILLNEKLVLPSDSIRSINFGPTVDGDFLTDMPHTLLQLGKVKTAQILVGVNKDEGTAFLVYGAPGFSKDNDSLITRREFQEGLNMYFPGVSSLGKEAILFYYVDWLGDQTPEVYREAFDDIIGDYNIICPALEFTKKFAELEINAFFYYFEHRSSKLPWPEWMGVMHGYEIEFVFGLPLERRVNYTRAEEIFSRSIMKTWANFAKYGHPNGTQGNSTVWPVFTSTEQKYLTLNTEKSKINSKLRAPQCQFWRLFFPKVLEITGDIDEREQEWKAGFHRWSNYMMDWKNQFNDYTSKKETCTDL
Procedure: as §1

C#CCN[C@@H]1CCc2ccc(OC(=O)N(C)CC)cc21 [ladostigil, R(+)-6-(N-methyl,N-ethyl-carbamoyloxy)-N′-propargyl-1-aminoindan]
MAO-A (%) inhibition (MAO-A; 60 min): 2.8 ± 2.5% | MAO-A (%) inhibition (MAO-A; 120 min): 3.8 ± 2.0% | Effect on striatal MAO-A activity (MAO-A): no effect | Deficit in episodic memory two days after dose ([1]; 17 mg/kg single dose, two days later when ChE was no longer inhibited): returned two days later | Discrimination index, Object ([1]; STZ (4 weeks) + 17 mg/kg acute): 0.348 ± 0.112 | Discrimination index, Object ([1]; STZ (4 weeks) + 17 mg/kg acute, two days later): −0.112 ± 0.08 | Discrimination index, Object ([1]; STZ (4 weeks) + ladostigil 1 mg/kg acute): 0.010 ± 0.08 | Discrimination index, Object ([1]; STZ (4 weeks) + ladostigil 1 mg/kg chronic, mean ± s.e.m.): 0.238 ± 0.05 | Discrimination in object recognition test ([1]; icv STZ with chronic ladostigil, significantly >0, P<0.05): significant discrimination index | Effect on the deficit in episodic memory ([1]; single dose 17 mg/kg): the memory deficit was abolished | Effect on the deficit in episodic memory ([1]; single dose of 1 mg/kg): no effect | BuChE (%) inhibition ([2]; Cortex, 60 min): 16.2 ± 2.5 % | BuChE (%) inhibition ([2]; Cortex, 120 min): 15.7 ± 3.2 % | BuChE (%) inhibition ([2]; Hippocampus, 60 min): 7.3 ± 2.5% | BuChE (%) inhibition ([2]; Hippocampus, 120 min): 5.4 ± 2.8% | Inhibition of BuChE in the hippocampus [2]: no significant inhibition | Inhibition of BuChE in the cortex ([2]; seven days after icv STZ, 1 or 2 hrs after the last dose): 16%
